Read-outs that look alike come from different tables or passages of the source.
Columns and labels:
[1] = tested on: H9 cells chronically infected with HIVIIIB; assay: Inactivation of cell-associated HIV in platelet concentrate, HIV microplaque assay; format: cell-based; conditions: for log inactivation of HIV, dark control: 150 μM psoralen, no UVA; for logs of HIV inactivated: 150 μM, 3 Joules/cm^2, cell-associated HIV in platelet concentrate
Method: H9 cells chronically infected with HIVIIIB were used. (H9/HTLV-III-B NIH 1983 Cat.#400). Cultures of these cells were maintained in high glucose Dulbecco Modified Eagle Medium supplemented with 2 mM L-glutamine, 200 u/mL penicillin, 200 μg/ml streptomycin, and 9% fetal bovine serum (Intergen Company, Purchase, N.Y.) For maintenance, the culture was split once a week, to a density of 3×10^5 to 4×10^5 cells/ml and about four days after splitting, 3.3% sodium bicarbonate was added as needed. For the inactivation procedure, the cells were used three days after they were split. They were pelleted from their culture medium at 400 g×10 minutes, the supernatant was discarded, and the cells were resuspended in one to five day old human platelet concentrate (PC) (pH 7.5-6.5), to a concentration of 2×10^6 cells/ml. Aliquots of the PC-infected cell suspension were made for psoralen free dark controls, for psoralen free UVA only controls, for psoralen dark controls, and for the psoralen plus UVA experimental sample. Concentrated filter-sterilized stock solutions of each psoralen in water were diluted into the appropriate aliquots to yield a final concentration of 150 μM. […] After an equilibration period of thirty minutes at room temperature, 0.5 ml of each of the dark controls was placed in a cryovial and stored in the dark at −80° C. For UVA illumination, 8 ml of the psoralen free aliquot and 8 ml of each psoralen containing aliquot were introduced into a modified Fl 20 Teflon™ bag (modified to be 92 cm^2 total surface area, The West Co., Phoenixvill, Pa.) via a plastic disposable 10 ml syringe attached to one of the polypropylne ports on the bag. This gave an average path length of 0.17 cm. The bags were then illuminated for a total exposure of 3 Joules/cm^2 in the device described in Example 1, above, attached to a circulating refrigerating water bath set at 4° C., which maintains the temperature in the bag at approximately 22-25° C. During exposure, the device was shaken on a platelet shaker (Helmer Labs, Noblesville, Ind.). After exposure, the contents of the bags were withdrawn by a fresh syringe through the remaining unused port on the bag, and placed in cryovials for storage in the dark at −80° C. until analysis.
The stored samples were thawed at 37° C., then titrated in an HIV microplaque assay, as described in Hanson, C. […] Clot removal from each sample was performed before plating.

[2] = tested on: Salmonella tester strain TA100
Procedure, shortened: (§1)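 Pre-incubation Ames method: overnight culture plus 10% Aroclor 1254-induced rat liver S-9 mix or 0.2M phosphate buffer pH 7.4, with test solutions of 0–500 μg/mL, shaken 20 min at 37° C. Plated in histidine/biotin top agar on minimal glucose agar, revertant colonies counted after 44 h at 37° C against spontaneous-revertant background.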

[3] = S-59 concentration by HPLC before and after illumination and RD treatment (Table Q); format: physicochemical
Method: Two ABO-matched single donor PCs containing 2−5×10^11 platelets in approximately 300 mL of 35% plasma and 65% PAS III were pooled and redivided into two identical units in PL 2410 Plastic containers (Baxter). One unit (the control) was immediately placed on a platelet shaker and stored at approximately 22° C. The other unit (the test) was treated with 150 μM S-59 and 3 Joules/cm^2 UVA. After treatment, the platelets suspension was transferred into a second PL 2410 Plastic container containing a RD. Contact between platelets and the RD occurred for a period of approximately 8 hours, then the platelet suspension was transferred to a new PL 2410 Plastic container for storage. The time of blood donation was defined as day 0. Treatment with S-59, UVA (320-400 nm), and the RD was performed on day 1. Six replicate experiments were carried out, each with a different pool of two ABO-matched single-donor platelet concentrates.
To evaluate the efficacy of the RD for reducing the concentration of S-59, platelet samples from the test unit were analyzed for S-59 content by HPLC. Samples before illumination, after 3 Joules/cm^2 of illumination, and immediately following the 8-hour RD treatment were analyzed.

[4] = tested on: Chinese hamster ovary (CHO) cells; assay: In vitro genotoxicity screen in CHO cells; conditions: approximately 3 hours exposure in the dark
Source text: In such studies, cells are exposed to chemicals with and/or without rat S-9 metabolic activation system (S-9) and are later examined for either cell survival (for a genotoxicity screen) or for changes in chromosome structure (for a chromosome aberration assay).
Chinese hamster ovary (CHO; ATCC CCL 61 CHO-K1, proline-requiring) cells were used for the in vitro genotoxicity and chromosomal aberration tests. CHO cells are used extensively for cytogenic testing because they have a relatively low number of chromosomes (2n=20) and a rapid rate of multiplication (˜12 to 14 hours, depending on culture conditions). The cells were grown in an atmosphere of 5% CO2 at approximately 37° C. in McCoy's 5a medium with 15% fetal bovine serum (FBS), 2 mM L-glutamine, and 1% penicillin-streptomycin solution to maintain exponential growth. This medium was also used during exposure of the cells to the test compound when no S-9 was used. Cell cultures were maintained and cell exposures were performed in T-75 or T-25 flasks.
Each of the sample compounds were tested at seven dilutions, 1, 3, 10, 33, 100, 333, and 1000 μg/ml. […]
After approximately 2.5 hours in colchicine, the cells were harvested. […] The cell density and metaphase quality on the initial slide from each flask was monitored using a phase-contrast microscope; at least two slides of appropriate cell density were prepared from each flask. […]

[5] = tested on: Salmonella tester strain TA97a
Procedure, shortened: as §1

## Cc1cc(=O)oc2c(C)c3oc(COCCN)c(C)c3cc12 [Compound 18, 5′-(4-amino-2-oxa)butyl-4,4′,8-trimethylpsoralen]
[1]
  log inactivation of HIV, dark control: 0 logs
  logs of HIV inactivated: > 7.2 logs

## Cc1oc2c(C)c3oc(=O)cc(C)c3cc2c1COCCN [Compound 2, 4′-(4-amino-2-oxa)butyl-4,5′,8-trimethylpsoralen]
[2]; TA100 + S9, 5 μg/plate
  revertant colonies per plate: −18
[2]; TA100 + S9, 10 μg/plate
  revertant colonies per plate: 1
[2]; TA100 + S9, 50 μg/plate
  revertant colonies per plate: 115
[2]; TA100 + S9, 100 μg/plate
  revertant colonies per plate: 96
[2]; TA100 − S9, 5 μg/plate
  revertant colonies per plate: 103
[2]; TA100 − S9, 10 μg/plate
  revertant colonies per plate: 46
[2]; TA100 − S9, 50 μg/plate
  revertant colonies per plate: 182
[2]; TA100 − S9, 100 μg/plate
  revertant colonies per plate: 121
[1]
  log inactivation of HIV, dark control: 0 logs
  logs of HIV inactivated: > 6.7 logs
[3]; 0 Joule/cm^2, HPLC
  initial S-59 concentration in a platelet concentrate: approximately 145±10 μM
[3]; Post Treatment With An RD (8 Hours)
  μM S-59: 0.27 ± 0.05 µM
[3]; Pre-Treatment (0 Joule/cm^2), platelet concentrate
  μM S-59: 145 ± 10 µM
[3]; after 3 Joule/cm^2 of illumination
  initial S-59 remaining unreacted: 20.5%±2.3%

## Cc1oc2c(C)c3oc(=O)cc(C)c3cc2c1CNCCCCN [Compound 6, 4′-(6-amino-2-aza)hexyl-4,5′,8-trimethylpsoralen]
[4]
  concentration at which the compound was genotoxic (toxic dose): 100 µg/mL

## Cc1oc2c(C)c3oc(=O)cc(C)c3cc2c1CN [AMT, 4′-Aminomethyl-4,5′,8-trimethylpsoralen, reference compound]
[5]; TA97a + S9, 0.1 μg/plate
  revertant colonies per plate: −23
[5]; TA97a + S9, 0.5 μg/plate
  revertant colonies per plate: 32
[5]; TA97a + S9, 1 μg/plate
  revertant colonies per plate: 32
[5]; TA97a + S9, 5 μg/plate
  revertant colonies per plate: 149
[5]; TA97a − S9, 0.1 μg/plate
  revertant colonies per plate: 14
[5]; TA97a − S9, 0.5 μg/plate
  revertant colonies per plate: 9
[5]; TA97a − S9, 1 μg/plate
  revertant colonies per plate: 54
[5]; TA97a − S9, 5 μg/plate
  revertant colonies per plate: 73
[4]
  concentration at which the compound was genotoxic (toxic dose): 30 µg/mL

Reference: patent publication US6544727B1, “Methods and devices for the removal of psoralens from blood products” (Cerus Corporation, priority 1995, dated 2003)
